Reference: US8518958B2, “Pyrido [2,3-D] pyrimidines and their use as kinase inhibitors” (Forma Therapeutics, Inc., priority 2006, dated 2013)

Experiments:
B-Raf delta1-415 = B-Raf delta1-415 (Homo sapiens, UniProt P15056); experiment: B-Raf kinase inhibition (MAPH filter plate, 33P-ATP, MEK1 substrate); conditions: read-out: Biochemical IC50 B-Raf
How it was run: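 Radiometric filter-binding assay with B-Raf delta1-415 at a level giving 50% turnover, MEK1 substrate and 33P-ATP (12.5 μCi/ml) in 20 mM Mops pH 7.0 with Mg/Mn, 1 h at room temperature. Inhibitor dilution series from 10 μM; EDTA-stopped reactions captured on phosphocellulose filters, counted by scintillation for IC50.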

[1] = target: C-Raf Raf-1 (truncated), active (Homo sapiens, UniProt P04049, Y340D/Y341D); experiment: C-Raf kinase inhibition (MAPH assay / IMAP assay); conditions: read-out: Biochemical IC50 C-Raf
Chain of C-Raf Raf-1 (truncated), active (P04049 306-648 Y340D/Y341D): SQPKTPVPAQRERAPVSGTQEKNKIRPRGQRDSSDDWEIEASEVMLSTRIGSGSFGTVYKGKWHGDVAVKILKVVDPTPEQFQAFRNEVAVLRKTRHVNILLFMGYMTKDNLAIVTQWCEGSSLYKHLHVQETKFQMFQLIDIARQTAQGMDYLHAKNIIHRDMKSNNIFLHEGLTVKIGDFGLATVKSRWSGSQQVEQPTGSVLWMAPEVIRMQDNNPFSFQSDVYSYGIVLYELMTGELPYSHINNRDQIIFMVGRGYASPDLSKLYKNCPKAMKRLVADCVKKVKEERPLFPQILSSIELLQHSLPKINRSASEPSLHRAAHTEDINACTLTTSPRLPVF
From the text: We characterized the in vitro inhibitory activity against protein kinases of compounds of the present invention by determining their IC50 values (see Table 2).
Kinase: C-Raf Raf-1 (truncated), active (Upstate; cat. no. 14-352)
Reaction Temperature: room temperature
Assay Plate: 96 well U bottom plate (Greiner, 650161)
MultiScreen-PH Plate: 96 well MAPH Filter Plates (Millipore, MAPHNOB50)
Filter Washing Solution: 0.75% H3PO4
Scintillation Liquid: Supermix Liquid Scintillator (PerkinElmer, 1200-439)
Negative Control (C−): 100 mM EDTA, no inhibitor
Positive Control (C+): no inhibitor
Reaction Buffer (Final Concentration):
Final Assay Concentrations:
Kinase: Use kinase conc. yielding 10% ATP turnover as determined in titration experiment.
Adenosine 5′-[γ-^33P]triphosphate: 12.5 μCi/ml (Amersham Biosciences, BF1000)
Substrate: Myelin Basic Protein 57.8 μM (Invitrogen, 13228-010)
Pipetting Sequence: • 1) Add 10 μl 4-fold concentrated substrate+4-fold concentrated ATP in 3-fold concentrated reaction buffer to each well of assay plate • 2) Add 10 μl […] concentrated inhibitor in 4% DMSO in H2O to each well except to C− and C+ wells (starting point: final inhibitor concentration 10 μM; IC50 determination based on dilution series) • 3) Add 10 μl 4% DMSO in H2O to C− and C+ wells • 4) Add 10 μl 500 mM EDTA in H2O to C− wells • 5) Add 10 μl 50 μCi/ml adenosine 5′-[γ-^33P]triphosphate in H2O to each well • 6) Add 10 μl […] concentrated kinase in Reaction Buffer to each well • 7) Incubate 1 hr at room temperature • 8) Add 10 μl 50 mM EDTA in H2O to each well except to C− wells • 9) Prepare MAPH plates by adding 200 μl 0.75% H3PO4 to each well • 10) Exhaust 0.75% H3PO4 using Millipore vacuum station • 11) Add 60 μl 0.75% H3PO4 to each well of MAPH filter plate • 12) Transfer 30 μl sample per well from assay plate to corresponding well of MAPH filter plate • 13) Incubate 30 min at room temperature • 14) Wash each well of MAPH filter plates 3× with 200 μl 0.75% H3PO4 using Millipore vacuum station • 15) Add 20 μl scintillation liquid to each well of MAPH filter plate • 16) Seal MAPH filter plate • 17) Store MAPH filter plate 30 min in darkness • 18) Quantify radioactivity using scintillation counter (MicroBeta, Perkin-Elmer)
Reaction Volume: 8.0108 μl
IMAP Incubation Time: 60 min
Assay Plate: 384 well U bottom, PP, black, low volume (Corning, 3676)
Compound Plate: 384 well U bottom, PS (Falcon, 3995)
IMAP Binding Buffer A: Molecular Devices, R7282
IMAP Binding Buffer B: Molecular Devices, R7283
IMAP Binding Reagent: Molecular Devices, R7207
Negative Control (C−): no kinase, no inhibitor
Reation buffer: 20 mM Hepes, pH 7.5 • 1 mM DTT • 10 mM MnCl2 • 0.01% Brij35
Kinase: Kinase conc. yielding 50% substrate turnover as determined in titration experiment • c-Raf (Upstate 14-352)
Substrate: 5F1-SGQLIDSMANSFV-NH2 400 nM (jpt Peptide Technologies GmbH, Berlin, Germany)
IMAP Binding Solution: 75% IMAP Binding Buffer A • 25% IMAP Binding Buffer B • IMAP Binding Reagent 1:800
Pipetting Sequence: • 1) Add 6 μl 1.33-fold concentrated substrate+1.33-fold concentrated ATP in 1-fold concentrated reaction buffer to each well of assay plate • 2) Add 10.8 nl 740-fold concentrated inhibitor in 100% DMSO to each well except to C− and C+ wells using pintool (CyBio, Jena, Germany) (starting point: final inhibitor concentration 10 μM; IC50 determination based on dilution series) • 3) Add 10.8 nl 100% DMSO to C− and C+ wells using pintool • 4) Add 2 μl reaction buffer to C− wells • 5) Add 2 μl 4-fold concentrated kinase in reaction buffer to each well except C− wells • 6) Incubate according to reaction time at room temperature • 7) Add 15 μl IMAP binding solution to each well • 8) Incubate according to IMAP incubation time at room temperature • 9) Measure fluorescence polarization (Analyst GT, Molecular Devices)

HT-29 tumor cells = experiment: Anti-proliferative activity, SRB assay; format: cell-based, human; conditions: Homo sapiens, HT-29, 72 h, 72 hours exposure, read-out: CELLULAR IC50 HT-29
How it was run: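 Cells at 3,000-15,000/well, plated 24 h before compound, exposed to a concentration range for 72 hours. Proliferation measured by SRB staining after cold TCA fixation, absorbance at OD570; IC50 estimated from % inhibition versus DMSO-treated cells.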

Chain of B-Raf delta1-415 (P15056 416-766): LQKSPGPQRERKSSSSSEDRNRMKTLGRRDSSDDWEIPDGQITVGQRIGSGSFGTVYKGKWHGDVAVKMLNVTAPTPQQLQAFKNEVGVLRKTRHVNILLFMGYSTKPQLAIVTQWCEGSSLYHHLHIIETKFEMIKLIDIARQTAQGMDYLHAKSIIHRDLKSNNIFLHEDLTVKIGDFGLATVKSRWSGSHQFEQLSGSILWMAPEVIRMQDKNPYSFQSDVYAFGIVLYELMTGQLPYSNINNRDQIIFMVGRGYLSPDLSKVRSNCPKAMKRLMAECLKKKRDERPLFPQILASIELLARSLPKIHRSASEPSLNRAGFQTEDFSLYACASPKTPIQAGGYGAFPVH

Compound | IC50 (B-Raf delta1-415) [µM] | IC50 [1] [µM] | IC50 (HT-29 tumor cells) [µM]
CC(C)(C)On1c(=O)c(-c2ccccc2Cl)cc2cnc(Nc3ccccc3)nc21 [Compound 63, 6-(2-Chlorophenyl)-8-(1,1-dimethyl)ethyloxy-2-phenylamino-pyrido[2,3-d]pyrimidin-7-one] | < 10 | < 10 | > 10
COn1c(=O)c(-c2ccccc2Cl)cc2cnc(Nc3cccc(CO)c3)nc21 [Compound 5, 6-(2-Chlorophenyl)-8-methoxy-2-(3-hydroxymethylphenylamino)-pyrido[2,3-d]pyrimidin-7-one] | < 0.5 | < 0.1 | < 1
COn1c(=O)c(-c2c(Cl)cccc2Cl)cc2cnc(N)nc21 [Compound 46, 2-Amino-6-(2,6-dichlorophenyl)-8-methoxy-pyrido[2,3-d]pyrimidin-7-one] | < 0.5 | < 0.1 | < 10
NCCCCOn1c(=O)c(-c2c(Cl)cccc2Cl)cc2cnc(Nc3cccc(S(N)(=O)=O)c3)nc21 [Compound 40, 8-(4-Aminobutoxy)-6-(2,6-dichlorophenyl)-2-(3-sulfamoylphenylamino)-pyrido[2,3-d]pyrimidin-7-one] | < 0.1 | < 0.1 | > 10
COCCOn1c(=O)c(-c2ccccc2Cl)cc2cnc(Nc3ccccc3)nc21 [Compound 20] | < 0.5 | < 0.1 | < 1
COn1c(=O)c(-c2cc(N)ccc2Cl)cc2cnc(Nc3ccccc3)nc21 [Compound 23, 6-(5-Amino-2-chlorophenyl)-8-methoxy-2-phenylamino-pyrido[2,3-d]pyrimidin-7-one] | < 0.5 | < 0.1 | < 10
COn1c(=O)c(-c2cc(NC(=O)c3ccc(Cl)cc3)ccc2Cl)cc2cnc(Nc3ccccc3)nc21 [Compound 37] | > 1 | < 0.1 | < 10
NCCCOn1c(=O)c(-c2c(Cl)cccc2Cl)cc2cnc(Nc3ccccc3)nc21 [Compound 55, 8-(3-Aminopropyl)oxy-6-(2,6-dichlorophenyl)-2-phenylamino-pyrido[2,3-d]pyrimidin-7-one] | < 0.5 | < 0.5 | < 1
COn1c(=O)c(-c2cccc(NC(=O)c3ccccc3)c2Cl)cc2cnc(Nc3ccccc3)nc21 [Compound 28] | > 10 | < 0.1 | < 1
COn1c(=O)c(-c2cc(NC(=O)c3cccnc3)ccc2Cl)cc2cnc(Nc3ccccc3)nc21 [Compound 31] | > 1 | < 0.1 | < 10
COn1c(=O)c(C(=O)Nc2ccccc2)cc2cnc(Nc3ccccc3)nc21 [Compound 61, 8-Methoxy-2-phenylamino-6-phenylaminocarbonyl-pyrido[2,3-d]pyrimidin-7-one] | > 10 | > 10 | < 10

Now from value to compound:

IC50 (B-Raf delta1-415) [µM] | IC50 [1] [µM] | IC50 (HT-29 tumor cells) [µM] | Compound
< 0.1 | < 0.5 | < 1 | COn1c(=O)c(-c2c(Cl)cccc2Cl)cc2cnc(Nc3cccc(SC)c3)nc21 [Compound 2, 6-(2,6-Dichlorophenyl)-8-methoxy-2-(3-methylthiophenylamino)-pyrido[2,3-d]pyrimidin-7-one]
< 0.1 | < 0.1 | < 1 | COc1cccc(Nc2ncc3cc(-c4c(Cl)cccc4Cl)c(=O)n(OCCCN)c3n2)c1 [Compound 71, 8-(3-Aminopropyl)oxy-6-(2,6-dichlorophenyl)-2-(3-methoxyphenyl)amino-pyrido[2,3-d]pyrimidin-7-one]
< 0.1 | < 0.1 | < 1 | CCOn1c(=O)c(-c2c(F)cccc2Cl)cc2cnc(Nc3ccc(N4CCN(C)CC4)cc3)nc21 [Compound 51, 6-(2-Chloro-6-fluorophenyl)-8-ethoxy-2-(4-(4-methylpiperazino)-phenylamino)-pyrido[2,3-d]pyrimidin-7-one]
< 0.5 | < 0.1 | < 1 | COn1c(=O)c(-c2ccc(Cl)cc2Cl)cc2cnc(Nc3ccc(N4CCN(C)CC4)cc3)nc21 [Compound 19, 6-(2,4-Dichlorophenyl)-8-methoxy-2-(4-(4-methylpiperazino)-phenylamino)-pyrido[2,3-d]pyrimidin-7-one]
< 0.5 | < 0.1 | < 10 | COn1c(=O)c(-c2c(Cl)cccc2Cl)cc2cnc(Nc3cc(CO)ccc3C)nc21 [Compound 45, 6-(2,6-Dichlorophenyl)-2-((2-methyl-5-hydroxymethylphenyl)-amino)-8-methoxy-pyrido[2,3-d]pyrimidin-7-one]
< 0.1 | < 0.1 | < 1 | COn1c(=O)c(-c2c(Cl)cccc2Cl)cc2cnc(Nc3ccncc3)nc21 [Compound 13, 6-(2,6-Dichlorophenyl)-8-methoxy-2-(pyrid-4-ylamino)-pyrido[2,3-d]pyrimidin-7-one]
< 0.5 | < 0.1 | < 1 | COn1c(=O)c(-c2cc(NC(=O)c3ccccc3)ccc2Cl)cc2cnc(Nc3ccc(N4CCN(C)CC4)cc3)nc21 [Compound 9, 6-(5-Benzoylamino-2-chloro-phenyl)-8-methoxy-2-(4-(4-methylpiperazino)-phenylamino)-pyrido[2,3-d]pyrimidin-7-one]
< 0.5 | > 1 | < 1 | CN1CCN(c2ccc(Nc3ncc4cc(-c5c(F)cccc5Cl)c(=O)n(O)c4n3)cc2)CC1 [Compound 241]
< 0.1 | < 0.1 | < 1 | COn1c(=O)c(-c2c(Cl)cccc2Cl)cc2cnc(Nc3ccc(N4CCN(C)CC4)cc3)nc21 [Compound 14, 6-(2,6-Dichlorophenyl)-8-methoxy-2-(4-(4-methylpiperazino)-phenylamino)-pyrido[2,3-d]pyrimidin-7-one]
< 0.1 | < 0.1 | < 1 | COn1c(=O)c(-c2c(Cl)cccc2Cl)cc2cnc(Nc3cccc(S(=O)(=O)CCO)c3)nc21 [Compound 10, 6-(2,6-Dichlorophenyl)-8-methoxy-2-(3-(2-hydroxyethylsulfonyl)phenylamino)-pyrido[2,3-d]pyrimidin-7-one]
< 0.5 | < 0.1 | < 1 | COCCOn1c(=O)c(-c2c(Cl)cccc2Cl)cc2cnc(Nc3cccc(OC)c3)nc21 [Compound 68, 6-(2,6-Dichlorophenyl)-8-(2-methoxyethyl)oxy-2-(3-methoxyphenyl)amino-pyrido[2,3-d]pyrimidin-7-one]
